pIC50: −log10 of the molar value.
Columns and labels:
[1] = molecular target: Substance-P receptor (Rattus norvegicus, UniProt P14600); test: Compound was tested for its binding affinity to NK1 receptor in [3H]SP binding assay on rat brain membranes.
[2] = molecular target: Substance-P receptor (Homo sapiens, UniProt P25103); test: Compound was tested for its binding affinity to NK1 receptor in [3H]SP binding assay on human IM9 lymphoblasts cultured cell line.
[3] = test system: Rattus norvegicus; test: Compound was administered intravenously and evaluated in vivo for its inhibition of SP-induced plasma extravasation in rat; format: functional; settings: iv
[4] = test system: Rattus norvegicus; test: Compound was administered orally and evaluated in vivo for its inhibition of SP-induced plasma extravasation in rat; format: functional; settings: po
[5] = test system: Rattus norvegicus; test: Compound was administered perorally and evaluated in vivo for its inhibition of SP-induced plasma extravasation in rat; format: functional; settings: po

Sequence of Substance-P receptor (Homo sapiens, UniProt P25103) (P25103 whole entry): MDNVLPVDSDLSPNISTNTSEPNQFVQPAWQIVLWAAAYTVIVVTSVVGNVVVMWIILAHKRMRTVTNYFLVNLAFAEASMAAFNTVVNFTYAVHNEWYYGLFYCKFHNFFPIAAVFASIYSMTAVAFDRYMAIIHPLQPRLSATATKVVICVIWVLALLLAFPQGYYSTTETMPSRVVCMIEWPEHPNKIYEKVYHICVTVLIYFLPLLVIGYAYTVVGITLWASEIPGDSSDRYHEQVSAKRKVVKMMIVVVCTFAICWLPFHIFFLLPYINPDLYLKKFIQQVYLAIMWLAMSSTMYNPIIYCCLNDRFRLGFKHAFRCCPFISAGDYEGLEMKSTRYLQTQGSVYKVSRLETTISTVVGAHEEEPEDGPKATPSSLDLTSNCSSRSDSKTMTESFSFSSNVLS
Sequence of Substance-P receptor (Rattus norvegicus, UniProt P14600) (P14600 whole entry): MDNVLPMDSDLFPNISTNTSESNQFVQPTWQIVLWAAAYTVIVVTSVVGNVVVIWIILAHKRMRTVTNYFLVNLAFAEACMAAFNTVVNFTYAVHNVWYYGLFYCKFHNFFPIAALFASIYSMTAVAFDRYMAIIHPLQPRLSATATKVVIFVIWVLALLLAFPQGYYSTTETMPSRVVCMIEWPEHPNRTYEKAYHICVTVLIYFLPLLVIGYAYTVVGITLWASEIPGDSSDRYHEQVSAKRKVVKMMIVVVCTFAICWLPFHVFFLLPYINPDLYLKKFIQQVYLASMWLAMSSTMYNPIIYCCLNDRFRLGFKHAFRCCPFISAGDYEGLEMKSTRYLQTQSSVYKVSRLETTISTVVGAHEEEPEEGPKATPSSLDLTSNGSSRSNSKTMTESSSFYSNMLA

Structure (SMILES) | pIC50 [1] | pIC50 [2] | ED50 [3] [mg/kg] | ED50 [4] [mg/kg] | ED50 [5] [mg/kg]
COc1ccccc1CC(=N)N1C[C@@H]2C(=O)CCC(c3ccccc3)(c3ccccc3)[C@@H]2C1 | 8.10 | 7.31 |  |  | 
COc1ccccc1[C@H](C)C(=O)N1C[C@@H]2[C@H](C1)[C@@](O)(c1ccccc1OC)CSC2(c1ccccc1)c1ccccc1 | 5.52 | 7.42 |  |  | 
CN(C)c1ccccc1CC(=O)N1C[C@H]2[C@@H](C1)C(c1ccccc1)(c1ccccc1)SC[C@@H]2O | 7.11 | 6.43 |  |  | 
COc1ccccc1[C@H](C)C(=O)N1C[C@@H]2[C@H](C1)C(c1ccccc1)(c1ccccc1)CC[C@@]2(O)c1ccccc1OC [DAPITANT] | 5.85 | 7.89 |  |  | 

Further lines, with some results ahead:

pIC50 [1] | pIC50 [2] | Structure (SMILES) | ED50 [3] [mg/kg] | ED50 [4] [mg/kg] | ED50 [5] [mg/kg]
8.70 | 8.05 | COc1ccccc1CC(=N)N1CC2C(=O)CSC(c3ccccc3)(c3ccccc3)C2C1 (stereo unspecified) | < 1 | > 10 | 
7.59 | 7.29 | CN(C)CCCOc1ccccc1CC(=O)N1CC2C(=O)CSC(c3ccccc3)(c3ccccc3)C2C1 (stereo unspecified) |  |  | 
8.30 | 7.82 | COc1ccccc1[C@H](SC)C(=O)N1CC2C(=O)CSC(c3ccccc3)(c3ccccc3)C2C1 (stereo partly specified) | 0.1 |  | 0.8
7.39 | 7.08 | CN(C)c1ccccc1CC(=O)N1CC2C(=O)CSC(c3ccccc3)(c3ccccc3)C2C1 (stereo unspecified) |  |  | 
6.33 |  | CN(C)c1ccccc1CC(=O)N1C[C@@H]2C(=O)C[S+]([O-])C(c3ccccc3)(c3ccccc3)[C@@H]2C1 (stereo partly specified) |  |  | 
